The values below are quoted from earlier work in PMC9042378 (RSC Advances, 2021).

This data set deals with Tyr.
Turning to `O=C1c2c(O)cc(O)cc2O[C@H](c2cc(O)c(O)c(O)c2)[C@H]1O` [dihydromyricetin], the Tyr inhibition type result is on record as “Mixed inhibition”. On to `O=C(O[C@@H]1Cc2c(O)cc(O)cc2O[C@@H]1c1ccc(O)c(O)c1)c1cc(O)c(O)c(O)c1` [epicatechin gallate], for which the Tyr inhibition type result is listed as “Mixed inhibition”.

Regarding `O=c1cc(CO)occ1O` [kojic acid], the Tyr inhibition type result was “Mixed inhibition”. Regarding `CCC(C)C(=O)c1c(O)c(Cc2c(O)c(C)c(O)c(C(=O)C(C)C)c2O)c(O)c2c1OC(C)(C)C=C2` (centres unmarked) [mallotophilippen A], the Tyr inhibition type result is “Mixed inhibition”. For the molecule mallotophilippen B, the Tyr inhibition type entry is reported as “Mixed inhibition”.
